Measured values taken from patent US12060368B2, “Selenophenochromene hydroxamic acids, preparation and use as angiogenesis inhibitors” (Latvian Institute of Organic Synthesis, priority 2018, dated 2024).
Where a name gives a salt, the structure may show the parent alone.

Key:
[1] = target: T1, MMP 1 (Homo sapiens, UniProt P03956); assay: MMP Inhibitor Fluorimetric Profiling kit, MMP 1; assay type: biochemical; conditions: for IC50: read-out: MMP 1 inhibition IC50; for inhibition at 20 µM: test compound 20 μM
T1 construct: recombinant human MMP-1-10, 12, 13 and 14 catalytic domains; purchased Biornol, USA
T1 sequence (P03956 98-276 limits assumed): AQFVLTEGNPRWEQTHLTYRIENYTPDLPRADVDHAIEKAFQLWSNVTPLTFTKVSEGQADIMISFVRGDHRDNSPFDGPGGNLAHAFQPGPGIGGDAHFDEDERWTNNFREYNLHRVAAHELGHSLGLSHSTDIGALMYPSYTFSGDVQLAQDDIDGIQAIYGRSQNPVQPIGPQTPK
Procedure: (§1) Inhibition of matrix metalloproteinase enzymes by synthesized selenopheno[3,2-h]chromenes I-1-I-4 was detected on MMP Inhibitor Fluorimetric Profiling kit using NNGH (N-isobutyl-N-4-methoxyphenylsulfonyl)glycyl-hydroxamic acid) as a standard.
(§2) MMP assay: Inhibitors of matrix metalloproteinase enzymes were detected with the use of MMP Inhibitor Fluorimetric Profiling kit (Biornol, USA) accordingly to manufacturer's instructions. MMP activity assays were performed in 96-well plates using the recombinant human MMP-1-10, 12, 13 and 14 catalytic domains and OmniMMP™ fluorogenic substrate SEQ ID No 1: Mca-Pro-Leu-Gly-Leu-Dpa-Ala-Arg-NH2. The test compounds (20 μM) were dissolved in DMSO. The compound NNGH (N-isobutyl-N-(4-methoxyphenylsulfonyl)-glycylhydroxamic acid) was used as a prototypic control inhibitor. The rate of substrate hydrolysis was determined by fluorescence intensity measuring for 10 minutes at 37° C. temperature using a fluorescence plate reader (Tecan infinite M1000, Austria) with excitation at 328 nm and emission at 420 nm. Data analysis was performed using program Graph Pad Prism® 3.0.

[2] = target: T2, MMP 2 (Homo sapiens, UniProt P08253); assay: MMP Inhibitor Fluorimetric Profiling kit, MMP 2; assay type: biochemical; conditions: for IC50: read-out: MMP 2 inhibition IC50; for inhibition at 20 µM: test compound 20 μM
T2 construct: recombinant human MMP-1-10, 12, 13 and 14 catalytic domains; purchased Biornol, USA
Procedure: as §1, §2

[3] = target: T3, MMP 3 (Homo sapiens, UniProt P08254); assay: MMP Inhibitor Fluorimetric Profiling kit, MMP 3; assay type: biochemical; conditions: for IC50: ne = no effect, read-out: MMP 3 inhibition IC50; for inhibition at 20 µM: test compound 20 μM
T3 construct: recombinant human MMP-1-10, 12, 13 and 14 catalytic domains; purchased Biornol, USA
Procedure: as §1, §2

[4] = target: T4, MMP 7 (Homo sapiens, UniProt P09237); assay: MMP Inhibitor Fluorimetric Profiling kit, MMP 7; assay type: biochemical; conditions: for inhibition at 20 µM: test compound 20 μM
T4 construct: recombinant human MMP-1-10, 12, 13 and 14 catalytic domains; purchased Biornol, USA
T4 sequence (P09237 95-267): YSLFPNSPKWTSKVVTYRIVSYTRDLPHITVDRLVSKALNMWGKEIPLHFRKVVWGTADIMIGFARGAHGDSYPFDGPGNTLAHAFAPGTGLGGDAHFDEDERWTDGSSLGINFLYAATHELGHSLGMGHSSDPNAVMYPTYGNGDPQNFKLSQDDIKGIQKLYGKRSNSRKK
Procedure: as §1, §2

[5] = target: T5, MMP 8 (Homo sapiens, UniProt P22894); assay: MMP Inhibitor Fluorimetric Profiling kit, MMP 8; assay type: biochemical; conditions: for IC50: read-out: MMP 8 inhibition IC50; for inhibition at 20 µM: test compound 20 μM
T5 construct: recombinant human MMP-1-10, 12, 13 and 14 catalytic domains; purchased Biornol, USA
Procedure: as §1, §2

[6] = target: T6, MMP 9 (Homo sapiens, UniProt P14780); assay: MMP Inhibitor Fluorimetric Profiling kit, MMP 9; assay type: biochemical; conditions: for IC50: read-out: MMP 9 inhibition IC50; for inhibition at 20 µM: test compound 20 μM
T6 construct: recombinant human MMP-1-10, 12, 13 and 14 catalytic domains; purchased Biornol, USA
Procedure: as §1, §2

[7] = target: T7, MMP 10 (stromelysin 2) (Homo sapiens, UniProt P09238); assay: MMP Inhibitor Fluorimetric Profiling kit, MMP 10; assay type: biochemical; conditions: for IC50: read-out: MMP 10 inhibition IC50; for inhibition at 20 µM: test compound 20 μM
T7 construct: recombinant human MMP-1-10, 12, 13 and 14 catalytic domains; purchased Biornol, USA
Procedure: as §1, §2

[8] = target: T8, MMP 12 (Homo sapiens, UniProt P39900); assay: MMP Inhibitor Fluorimetric Profiling kit, MMP 12; assay type: biochemical; conditions: for MMP 12 inhibition IC50: ne = no effect; for inhibition at 20 µM: test compound 20 μM
T8 construct: recombinant human MMP-1-10, 12, 13 and 14 catalytic domains; purchased Biornol, USA
Procedure: as §1, §2

[9] = target: T9, MMP 13 (Homo sapiens, UniProt P45452); assay: MMP Inhibitor Fluorimetric Profiling kit, MMP 13; assay type: biochemical; conditions: for MMP 13 inhibition IC50 / IC50: ne = no effect; for inhibition at 20 µM: test compound 20 μM; for IC50: read-out: MMP 13 inhibition IC50
T9 construct: recombinant human MMP-1-10, 12, 13 and 14 catalytic domains; purchased Biornol, USA
Procedure: as §1, §2

[10] = target: T10, MMP 14 (Homo sapiens, UniProt P50281); assay: MMP Inhibitor Fluorimetric Profiling kit, MMP 14; assay type: biochemical; conditions: for IC50: read-out: MMP 14 inhibition IC50; for inhibition at 20 µM: test compound 20 μM
T10 construct: recombinant human MMP-1-10, 12, 13 and 14 catalytic domains; purchased Biornol, USA
Procedure: as §1, §2

T5 sequence (P22894 100-262 limits assumed): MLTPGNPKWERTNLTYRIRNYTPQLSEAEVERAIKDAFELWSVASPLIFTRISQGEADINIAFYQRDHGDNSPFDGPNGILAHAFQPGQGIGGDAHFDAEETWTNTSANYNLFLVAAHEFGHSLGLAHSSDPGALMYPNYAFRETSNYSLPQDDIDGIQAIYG
T7 sequence (P09238 99-263 limits assumed): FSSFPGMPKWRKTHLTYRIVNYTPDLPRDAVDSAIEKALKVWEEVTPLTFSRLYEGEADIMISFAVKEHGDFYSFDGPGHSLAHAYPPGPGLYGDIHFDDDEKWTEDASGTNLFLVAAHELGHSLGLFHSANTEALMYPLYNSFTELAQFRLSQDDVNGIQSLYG
T8 sequence (P39900 106-263 limits assumed): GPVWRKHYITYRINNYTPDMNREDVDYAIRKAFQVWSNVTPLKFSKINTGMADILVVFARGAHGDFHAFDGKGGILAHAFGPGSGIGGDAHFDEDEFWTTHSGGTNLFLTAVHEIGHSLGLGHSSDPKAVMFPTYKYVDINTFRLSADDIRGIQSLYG
T6 sequence (P14780 107-444 limits assumed): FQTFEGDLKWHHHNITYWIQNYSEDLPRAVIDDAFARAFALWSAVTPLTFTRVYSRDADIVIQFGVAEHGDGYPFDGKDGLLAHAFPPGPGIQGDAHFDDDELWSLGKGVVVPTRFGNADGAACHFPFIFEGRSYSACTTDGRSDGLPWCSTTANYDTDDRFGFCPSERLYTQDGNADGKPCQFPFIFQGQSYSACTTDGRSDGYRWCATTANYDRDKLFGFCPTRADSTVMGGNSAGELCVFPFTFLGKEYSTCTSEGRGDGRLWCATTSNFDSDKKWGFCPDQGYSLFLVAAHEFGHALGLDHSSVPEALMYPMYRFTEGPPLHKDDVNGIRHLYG
T2 sequence (P08253 110-446 limits assumed): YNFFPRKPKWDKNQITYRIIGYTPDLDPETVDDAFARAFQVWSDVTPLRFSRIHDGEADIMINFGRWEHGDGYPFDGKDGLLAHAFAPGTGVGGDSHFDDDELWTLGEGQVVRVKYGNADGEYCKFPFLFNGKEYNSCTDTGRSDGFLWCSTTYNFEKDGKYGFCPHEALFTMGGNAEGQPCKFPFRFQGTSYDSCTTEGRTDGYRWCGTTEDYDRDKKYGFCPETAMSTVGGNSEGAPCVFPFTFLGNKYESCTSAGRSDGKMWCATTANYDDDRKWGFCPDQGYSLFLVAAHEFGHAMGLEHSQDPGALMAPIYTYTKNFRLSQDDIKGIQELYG
T3 sequence (P08254 100-272 limits assumed): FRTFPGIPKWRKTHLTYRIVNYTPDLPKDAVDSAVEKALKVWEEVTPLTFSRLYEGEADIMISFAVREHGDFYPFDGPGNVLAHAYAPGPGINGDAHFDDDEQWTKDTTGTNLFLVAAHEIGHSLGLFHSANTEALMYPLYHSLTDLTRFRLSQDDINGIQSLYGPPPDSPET

SMILES	melting point [°C]	IC50 ([1]; ne = no effect) [µM]	inhibition at 20 µM [1] [%]	IC50 ([2]; ne = no effect) [µM]	inhibition at 20 µM [2] [%]	IC50 [3] [µM]	inhibition at 20 µM [3] [%]	inhibition at 20 µM [4] [%]	IC50 ([5]; ne = no effect) [µM]	inhibition at 20 µM [5] [%]	IC50 ([6]; ne = no effect) [µM]	inhibition at 20 µM [6] [%]	IC50 ([7]; ne = no effect) [µM]	inhibition at 20 µM [7] [%]	MMP 12 inhibition IC50 [8]	inhibition at 20 µM [8] [%]	inhibition at 20 µM [9] [%]	IC50 ([10]; ne = no effect) [µM]	inhibition at 20 µM [10] [%]	MMP 7 inhibition IC50 ([4]; ne = no effect)	also measured
CN1CCN(Cc2[se]c3c(ccc4cc(C(=O)NO)c(=O)oc43)c2Br)CC1 (as salt: hydrochloride) [Compound I-1, 7-Bromo-N-hydroxy-8-((4-methylpiperazin-1-yl)methyl)-2-oxo-2H-selenopheno[3,2-h]chromene-3-carboxamide hydrochloride]	> 200	–	–	–	–	–	–	–	–	–	–	–	–	–	–	–	–	–	–	–	–
O=C(NO)c1cc2ccc3c(Br)c(CN4CCNCC4)[se]c3c2oc1=O (as salt: hydrochloride) [Compound I-2, 7-Bromo-N-hydroxy-2-oxo-8-(piperazin-1-ylmethyl)-2H-selenopheno[3,2-h]chromene-3-carboxamide hydrochloride]	> 200	–	–	–	–	–	–	–	–	–	–	–	–	–	–	–	–	–	–	–	–
O=C(NO)c1cc2ccc3c(Br)c(CCN4CCNCC4)[se]c3c2oc1=O (as salt: hydrochloride) [Compound I-3, 7-Bromo-N-hydroxy-2-oxo-8-(2-(piperazin-1-yl)ethyl)-2H-selenopheno[3,2-h]chromene-3-carboxamide hydrochloride]	> 200	–	–	–	–	–	–	–	–	–	–	–	–	–	–	–	–	–	–	–	–
CN1CCN(Cc2[se]c3c(ccc4cc(C(=O)NO)c(=O)oc43)c2Br)CC1 [Compound I-1, 7-Bromo-N-hydroxy-8-((4-methylpiperazin-1-yl)methyl)-2-oxo-2H-selenopheno[3,2-h]chromene-3-carboxamide hydrochloride]	–	> 20	29 ± 2	20	51 ± 2	> 20	34 ± 2	28 ± 2	20	56 ± 2	> 20	35 ± 5	1.92	≤ 97	ne	0	0	18 ± 2	58 ± 2	–	IC50 ([4]; ne = no effect, read-out: MMP 7 inhibition IC50): > 20 µM; MMP 13 inhibition IC50 [9]: ne
O=C(NO)c1cc2ccc3c(Br)c(CN4CCNCC4)[se]c3c2oc1=O [Compound I-2, 7-Bromo-N-hydroxy-2-oxo-8-(piperazin-1-ylmethyl)-2H-selenopheno[3,2-h]chromene-3-carboxamide hydrochloride]	–	5.93 ± 0.54	94 ± 1	1.57 ± 0.18	98 ± 1	> 20	31 ± 7	20 ± 1	1.64 ± 0.25	100 ± 1	1.48 ± 0.11	100 ± 1	1.37 ± 0.85	99	ne	5 ± 1	98 ± 1	4.35 ± 1.02	98 ± 2	ne	MMP 1 inhibition IC50 ([1]; ne = no effect): 1.37+6.27 μM; MMP 2 inhibition IC50 ([2]; ne = no effect): 1.37+6.27 μM; MMP 8 inhibition IC50 ([5]; ne = no effect): 1.37+6.27 μM; MMP 9 inhibition IC50 ([6]; ne = no effect): 1.37+6.27 μM; MMP 10 inhibition IC50 ([7]; ne = no effect): 1.37+6.27 μM; MMP 13 inhibition IC50 [9]: 1.37+6.27 μM; IC50 [9]: 6.27 ± 0.65 µM; MMP 14 inhibition IC50 ([10]; ne = no effect): 1.37+6.27 μM
O=C(NO)c1cc2ccc3c(Br)c(CCN4CCNCC4)[se]c3c2oc1=O [Compound I-3, 7-Bromo-N-hydroxy-2-oxo-8-(2-(piperazin-1-yl)ethyl)-2H-selenopheno[3,2-h]chromene-3-carboxamide hydrochloride]	–	6.66 ± 0.85	94 ± 2	1.13 ± 0.08	100 ± 1	> 20	35 ± 5	20 ± 3	1.61 ± 0.14	100 ± 1	1.06 ± 0.07	99 ± 1	0.96	100 ± 1	ne	0	97 ± 4	3.88 ± 0.99	99 ± 4	ne	IC50 [9]: 4.95 ± 1.05 µM
O=C(NO)c1cc2ccc3c(Br)c(CN4CCCNCC4)[se]c3c2oc1=O [Compound I-4, 8-((1,4-Diazepan-1-yl)methyl)-7-bromo-N-hydroxy-2-oxo-2H-selenopheno[3,2-h]chromene-3-carboxamide hydrochloride]	–	5.21 ± 0.62	99 ± 8	1.86 ± 0.21	99 ± 6	> 20	34 ± 8	16 ± 3	1.86 ± 0.22	100 ± 9	1.92 ± 0.31	99 ± 6	1.71 ± 0.18	99 ± 8	ne	7 ± 3	95 ± 8	4.04 ± 0.97	99 ± 7	ne	IC50 [9]: 4.74 ± 0.95 µM
COc1ccc(S(=O)(=O)N(CC(=O)NO)CC(C)C)cc1 [NNGH, N-isobutyl-N-(4-methoxyphenylsulfonyl)-glycylhydroxamic acid, reference compound]	–	–	–	–	–	–	–	–	–	–	–	–	–	–	–	–	–	–	–	–	MMP 1 inhibition ([1]; control inhibitor 1.3 μM): 100%; MMP 2 inhibition ([2]; control inhibitor 1.3 μM): 100%; MMP 3 inhibition ([3]; control inhibitor 1.3 μM): 100%; MMP 7 inhibition ([4]; control inhibitor 1.3 μM): 7.2%; MMP 8 inhibition ([5]; control inhibitor 1.3 μM): 100%; MMP 9 inhibition ([6]; control inhibitor 1.3 μM): 100%; MMP 10 inhibition ([7]; control inhibitor 1.3 μM): 100%; MMP 12 inhibition ([8]; control inhibitor 1.3 μM): 100%; MMP 13 inhibition ([9]; control inhibitor 1.3 μM): 100%; MMP 14 inhibition ([10]; control inhibitor 1.3 μM): 100%
